Data as given in the Kinase Knowledgebase extract (Sharma et al. 2016).

Target: EGFR (UniProt P00533)
Conditions: for inhibition: concentration not given here

Sequence of EGFR (P00533 whole entry, looked up): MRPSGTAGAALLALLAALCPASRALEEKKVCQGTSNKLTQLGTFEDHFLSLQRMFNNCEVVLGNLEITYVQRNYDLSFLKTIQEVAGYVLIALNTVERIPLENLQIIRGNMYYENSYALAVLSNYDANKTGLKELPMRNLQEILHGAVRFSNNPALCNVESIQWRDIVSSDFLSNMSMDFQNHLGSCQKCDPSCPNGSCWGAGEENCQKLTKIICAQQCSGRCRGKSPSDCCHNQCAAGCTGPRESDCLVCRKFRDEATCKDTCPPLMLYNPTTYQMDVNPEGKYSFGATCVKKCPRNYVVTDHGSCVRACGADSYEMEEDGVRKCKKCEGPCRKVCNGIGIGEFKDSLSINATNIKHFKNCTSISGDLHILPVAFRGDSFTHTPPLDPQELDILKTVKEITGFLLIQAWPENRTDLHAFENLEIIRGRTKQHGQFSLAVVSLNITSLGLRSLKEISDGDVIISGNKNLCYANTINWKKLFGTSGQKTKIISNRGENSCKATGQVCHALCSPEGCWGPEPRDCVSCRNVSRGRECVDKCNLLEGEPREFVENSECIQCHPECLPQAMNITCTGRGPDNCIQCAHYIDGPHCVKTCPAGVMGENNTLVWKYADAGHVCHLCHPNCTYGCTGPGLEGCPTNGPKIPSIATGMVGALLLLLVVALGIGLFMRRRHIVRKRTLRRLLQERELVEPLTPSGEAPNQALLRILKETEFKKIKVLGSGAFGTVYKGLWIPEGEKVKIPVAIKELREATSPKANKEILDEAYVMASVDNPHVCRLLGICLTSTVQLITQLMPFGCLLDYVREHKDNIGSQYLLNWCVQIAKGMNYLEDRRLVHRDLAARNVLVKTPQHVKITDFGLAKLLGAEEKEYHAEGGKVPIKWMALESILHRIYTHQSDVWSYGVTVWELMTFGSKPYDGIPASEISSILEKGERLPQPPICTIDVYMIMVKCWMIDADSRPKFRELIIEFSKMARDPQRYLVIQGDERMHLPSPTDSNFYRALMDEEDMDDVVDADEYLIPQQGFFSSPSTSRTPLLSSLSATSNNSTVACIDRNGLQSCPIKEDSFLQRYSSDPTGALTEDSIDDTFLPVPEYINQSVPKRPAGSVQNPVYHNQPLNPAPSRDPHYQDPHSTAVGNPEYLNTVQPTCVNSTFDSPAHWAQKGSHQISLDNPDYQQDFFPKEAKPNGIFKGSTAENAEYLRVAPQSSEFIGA

| SMILES | inhibition | IC50 |
| --- | --- | --- |
| O=c1ccc2cc(O)c(O)cc2o1 | 0% |  |
| O=c1ccc2ccc(O)cc2o1 | 0% |  |
| O=c1ccc2ccccc2o1 | 0% |  |
| OC1C=Cc2ccccc2O1 (configuration not stated) | 0% |  |
| O=c1cc(O)c2ccccc2o1 | 0% |  |
| O=c1ccc2ccc(O)c(O)c2o1 | 99.6% | 7.67 µM |
